The results in this text go back to US20260184663A1, “INDENE COMPOUNDS, PHARMACEUTICAL COMPOSITIONS THEREOF, AND THEIR THERAPEUTIC APPLICATIONS” (NucMito Pharmaceuticals co. Ltd., priority 2022, published 2026).

Holding throughout (format): cell-based
Experiment [1] has as its system B16F10 (malignant melanoma). The experiment can be described thus: Antiproliferative activity (CCK-8 cell viability), B16F10. To be noted: Mus musculus, 72 h, read-out: Antiproliferative activity in cancerous cells, B16F10 (inhibition of cell growth); for inhibition at 3.3 µM: B16-F10, Compound concentration: 3.3 μM; for inhibition at 10 µM: B16-F10, Compound concentration: 10 μM. Put shortly: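 B16F10 melanoma cells grown in DMEM with 10% FBS were plated in 96-well plates at 2,000-5,000 cells/well. After attachment they were exposed to compound in medium for 72 h at 37° C. CCK-8 solution (10 μL) was then added, and after 4 h at 37° C absorbance was read at 450 nm.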

In experiment [2] the test system is A549 (lung adenocarcinoma). The experiment can be described thus: Antiproliferative activity (CCK-8 cell viability), A549. To be noted: Homo sapiens, 72 h, read-out: Antiproliferative activity in cancerous cells, A549 (inhibition of cell growth); for inhibition at 3.3 µM: Compound concentration: 3.3 μM; for inhibition at 10 µM: Compound concentration: 10 μM. The gist of the method: (§1)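 Cells grown in DMEM (HepG2, SW480), MEM (HeLa) or F-12K (A549), each with 10% FBS, then exposed to compound at 3.3, 10 or 30 μM for 72 h at 37 °C. CCK-8 absorbance at 450 nm; viability expressed as percent of DMSO-treated cells, graded as growth inhibition bands.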

Experiment [3] deals with MDA-MB-231 (breast cancer). The experiment can be described thus: Antiproliferative activity (CCK-8 cell viability), MDA-MB-231. The following applies: Homo sapiens, 72 h, read-out: Antiproliferative activity in cancerous cells, MDA-MB-231 (inhibition of cell growth); for inhibition at 3.3 µM: Compound concentration: 3.3 μM; for inhibition at 10 µM: Compound concentration: 10 μM. The gist of the method: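 MDA-MB-231 breast cancer cells, grown in DMEM with 10% FBS, were plated in 96-well plates at 2,000-5,000 cells/well. Once attached, they were exposed to compound and incubated at 37° C. for 72 h. Viability was then measured with CCK-8 (10 μL per well, 4 h at 37° C.) by absorbance at 450 nm, relative to DMSO vehicle wells.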

Experiment [4] relates to alpha-smooth muscle actin (α-SMA). The experiment can be described thus: Inhibition of TGF-β induced expression of alpha-smooth muscle actin (α-SMA) in CFSC cells (western blot). To be noted: compound at 10 μM, TGF-β (10 ng/mL), 24 hours, band intensity vs TGF-β only. The gist of the method: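 Values are percent reduction of α-SMA band intensity relative to cells given TGF-β alone, quantified by Western blot densitometry with β-actin probed. Compound was applied at 10 μM alongside 10 ng/mL TGF-β to serum-free CFSC cultures for 24 h at 37 °C.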
A general note: A western blot detects proteins with antibodies after separation by electrophoresis.

In experiment [5] the test system is SW480 (colon cancer). The experiment can be described thus: Antiproliferative activity (CCK-8 cell viability), SW480. The following applies: Homo sapiens, 72 h; for inhibition at 3.3 µM: Compound concentration: 3.3 μM; for inhibition at 3.3 µM / inhibition at 10 µM: read-out: Antiproliferative activity in cancerous cells, SW480 (inhibition of cell growth); for inhibition at 10 µM: Compound concentration: 10 μM. Put shortly: as §1

The test system of experiment [6] is A431 (epidermoid carcinoma). The experiment can be described thus: Antiproliferative activity (CCK-8 cell viability), A431. The following applies: Homo sapiens, 72 h, read-out: Antiproliferative activity in cancerous cells, A431 (inhibition of cell growth); for inhibition at 3.3 µM: A-431, Compound concentration: 3.3 μM; for inhibition at 10 µM: A-431, Compound concentration: 10 μM. The gist of the method:
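A431 epidermoid carcinoma cells grown in DMEM with 10% FBS were plated at 2,000-5,000 cells/well in 96-well plates. After attachment they were exposed to compound at 3.3 μM, 10 μM, or 30 μM for 72 h at 37° C. Viability was then assessed by CCK-8 against DMSO vehicle-treated wells.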

The test system of experiment [7] is HepG2 (liver cancer). The experiment can be described thus: Antiproliferative activity (CCK-8 cell viability), HepG2. To be noted: Homo sapiens, 72 h; for inhibition at 3.3 µM: Compound concentration: 3.3 μM; for inhibition at 3.3 µM / inhibition at 10 µM: read-out: Antiproliferative activity in cancerous cells, HepG2 (inhibition of cell growth); for inhibition at 10 µM: Compound concentration: 10 μM. Put shortly: as §1

In experiment [8] the test system is HeLa (cervical cancer). Briefly: Antiproliferative activity (CCK-8 cell viability), HeLa. To be noted: Homo sapiens, 72 h, read-out: Antiproliferative activity in cancerous cells, HELA (inhibition of cell growth); for inhibition at 3.3 µM: Compound concentration: 3.3 μM; for inhibition at 10 µM: Compound concentration: 10 μM. Put shortly:
as §1

In the case of `CC1=C(C(C)C(=O)O)c2ccccc2/C1=C\c1ccc(Oc2ccc(F)cc2)cc1` (centres unmarked) [C29, (Z)-2-(1-(4-(4-Fluorophenoxy)benzylidene)-2-methyl-1H-inden-3-yl)propanoic acid], the inhibition at 3.3 µM in experiment [1] is 30 to 50%; in experiment [2], less than 30%; in experiment [3] it was 30 to 50%; in experiment [5] it was 30 to 50%; in experiment [6] it was less than 30%; in experiment [7] it was less than 30%. The inhibition at 3.3 µM in experiment [8] was no less than 50%. Further, the inhibition at 10 µM in experiment [1] was no less than 50%; in experiment [2], 30 to 50%; in experiment [3], no less than 50%; in experiment [4], 50 to 80%; in experiment [5], 30 to 50%; in experiment [6], no less than 50%. Moreover, the inhibition at 10 µM in experiment [7] and in experiment [8] was no less than 50% each time.

For `O=C(O)CC1=C(Cc2ccc(Oc3ccc(F)cc3)cc2)/C(=C/c2ccc(F)cc2)c2ccc(F)cc21` [A105, (Z)-2-(5-Fluoro-1-(4-fluorobenzylidene)-2-(4-(4-fluorophenoxy)benzyl)-1H-inden-3-yl)acetic acid], the inhibition at 3.3 µM in experiment [1], in experiment [2], in experiment [3], in experiment [5], in experiment [6] and in experiment [7] was no less than 50% in each case. For the same compound, the inhibition at 3.3 µM in experiment [8] is no less than 50%. For the same compound, the inhibition at 10 µM in experiment [1] was no less than 50%; in experiment [2] it was no less than 50%; in experiment [3] it was no less than 50%; in experiment [4], greater than 80%; in experiment [5] it was no less than 50%; in experiment [6], no less than 50%. For the same compound, the inhibition at 10 µM in experiment [7] and in experiment [8] was no less than 50% throughout.

With `COc1ccc2c(c1)C(CC(=O)O)=C(C)/C2=C/c1cccc(COc2ccc(F)cc2)c1` [B24, (Z)-2-(1-(3-((4-Fluorophenoxy)methyl)benzylidene)-5-methoxy-2-methyl-1H-inden-3-yl)acetic acid], the inhibition at 3.3 µM in experiment [1] was less than 30%; in experiment [2], 30 to 50%; in experiment [3], 30 to 50%; in experiment [5], less than 30%; in experiment [6] it was less than 30%; in experiment [7], less than 30%. For the same compound, the inhibition at 3.3 µM in experiment [8] was less than 30%. Also, the inhibition at 10 µM in experiment [1] is no less than 50%; in experiment [2] it was no less than 50%; in experiment [3] it was no less than 50%; in experiment [4] it was greater than 80%; in experiment [5] it was less than 30%; in experiment [6], less than 30%. For the same compound, the inhibition at 10 µM in experiment [7] and in experiment [8] was less than 30% in each case. Also, the inhibition at 30 µM in experiment [7] (Compound concentration: 30 μM, read-out: Antiproliferative activity in cancerous cells, HepG2) lay in the range of 30 to 50%.

In the case of `CCc1ccc2c(c1)C(CC(=O)O)=C(C)/C2=C/c1cccc(COc2ccccc2)c1` [B11, (Z)-2-(5-Ethyl-2-methyl-1-(3-(phenoxymethyl)benzylidene)-1H-inden-3-yl)acetic acid], the inhibition at 3.3 µM is no less than 50% in experiment [1]; 30 to 50% in experiment [2]; 30 to 50% in experiment [3]; no less than 50% in experiment [5]; no less than 50% in experiment [6]; no less than 50% in experiment [7]. In addition, in experiment [8], the inhibition at 3.3 µM is less than 30%. For the same compound, the inhibition at 10 µM was no less than 50% in experiment [1]; no less than 50% in experiment [2]; no less than 50% in experiment [3]; greater than 80% in experiment [4]; no less than 50% in experiment [5]; no less than 50% in experiment [6]. Moreover, the inhibition at 10 µM in experiment [7] and in experiment [8] was no less than 50% each time.

`O=C(O)CC1=C(CC2CCCC2)/C(=C/c2ccc(Oc3ccc(F)cc3)cc2)c2ccc(F)cc21` [C7, (Z)-2-(2-(Cyclopentylmethyl)-5-fluoro-1-(4-(4-fluorophenoxy)benzylidene)-1H-inden-3-yl)acetic acid]: the inhibition at 3.3 µM in experiment [1] was no less than 50%; in experiment [2] it was no less than 50%; in experiment [3], no less than 50%; in experiment [5] it was no less than 50%; in experiment [6] it was no less than 50%; in experiment [7], 30 to 50%. Further, in experiment [8], the inhibition at 3.3 µM is no less than 50%. Moreover, the inhibition at 10 µM in experiment [1] was no less than 50%; in experiment [2] it was no less than 50%; in experiment [3], no less than 50%; in experiment [4] it was greater than 80%; in experiment [5], no less than 50%; in experiment [6] it was no less than 50%. The inhibition at 10 µM in experiment [7] and in experiment [8] was no less than 50% in each case.

As for `CC1=C(CC(=O)O)c2cc(C)ccc2/C1=C\c1ccc(Oc2ccc(F)cc2)cc1` [C4, (Z)-2-(1-(4-(4-Fluorophenoxy)benzylidene)-2,5-dimethyl-1H-inden-3-yl)acetic acid], the inhibition at 3.3 µM in experiment [1] was less than 30%; in experiment [2] it was less than 30%; in experiment [3] it was less than 30%; in experiment [5], less than 30%; in experiment [6], less than 30%; in experiment [7], 30 to 50%. Also, the inhibition at 3.3 µM in experiment [8] was less than 30%. In addition, the inhibition at 10 µM in experiment [1] was less than 30%; in experiment [2], 30 to 50%; in experiment [3], 30 to 50%; in experiment [4], greater than 80%; in experiment [5] it was less than 30%; in experiment [6], 30 to 50%. The inhibition at 10 µM in experiment [7] and in experiment [8] was no less than 50% throughout. Besides, the inhibition at 30 µM in experiment [5] (Compound concentration: 30 μM, read-out: Antiproliferative activity in cancerous cells, SW480) lay in the range of 30 to 50%.

As to `O=C(O)CC1=C(Cc2ccccc2)/C(=C/c2ccc(COc3ccccc3)cc2)c2ccc(F)cc21` [A1, (Z)-2-(2-Benzyl-5-fluoro-1-(4-(phenoxymethyl)benzylidene)-1H-inden-3-yl)-acetic acid], the inhibition at 3.3 µM in experiment [1] is 30 to 50%; in experiment [2], less than 30%; in experiment [3] it was no less than 50%; in experiment [5], no less than 50%; in experiment [6], 30 to 50%; in experiment [7], 30 to 50%. Moreover, the inhibition at 3.3 µM in experiment [8] was no less than 50%. Besides, the inhibition at 10 µM in experiment [1] was no less than 50%; in experiment [2] it was 30 to 50%; in experiment [3] it was no less than 50%; in experiment [4], greater than 80%; in experiment [5] it was no less than 50%; in experiment [6] it was no less than 50%. In addition, the inhibition at 10 µM in experiment [7] and in experiment [8] was no less than 50% in each case.
